Test [1] deals with H. pylori strains ATCC 43504. Further details: method as in PMID 18780820. The conditions noted are these: cited from earlier work.
For a further test, the system named is H. pylori strain SS1. Briefly: Anti-H. pylori activity assay, MIC by standard agar dilution method. In kind it is cell-based. The settings on record: Helicobacter pylori, SS1, 72 h, 3 days, 37°C, microaerobic. The method, then: (§1) The bacterial growth inhibition activity for Emodin was evaluated by using Paper Discus Method. DMSO and ampicillin paper were used as negative and positive control respectively. The minimum inhibitory concentrations (MIC) values were determined by the standard agar dilution method using Columbia agar supplemented with 10% sheep blood containing two-fold serial dilutions of Emodin. The plates were inoculated with a bacterial suspension (10^8 cfu/ml) in Brain Heart Infusion broth with a multipoint inoculator. Compound-free Columbia agar media were used as controls. Inoculated plates were incubated at 37°C under microaerobic conditions (85% N2, 10% CO2 and 5% O2) and examined after 3 days.
(§2) The inhibition activities of Emodin against H. pylori strains SS1 and ATCC 43504 were assayed according to the standard agar dilution method.

Test [2] concerns H. pylori strain ATCC 43504. Described as above. Format: cell-based. The conditions noted are these: Helicobacter pylori, ATCC43504, 72 h, 3 days, 37°C, microaerobic. As to the method:
as §1, §2

The target in test [3] is T1, HpFabZ (Helicobacter pylori, UniProt Q5G940). Briefly: HpFabZ enzymatic inhibition assay (spectrophotometric, substrate crotonoyl-CoA). Format: biochemical. As to the method:
The expression, purification and enzymatic inhibition assay of HpFabZ enzyme were performed according to the previously published approach with slight modification. The compounds dissolved in 1% DMSO (Dimethyl sulfoxide) were incubated with the enzyme for 2 hours before the assay started. The IC50 value of Emodin was estimated by fitting the inhibition data to a dose-dependent curve using a logistic derivative equation. The inhibition type of Emodin against HpFabZ was determined in the presence of varied inhibitor concentrations. After 2h-incubation, the reaction was started by the addition of crotonoyl-CoA. The Ki value was obtained from Lineweaver-Burk double-reciprocal plots and subsequent secondary plots.
The recombinant HpFabZ enzyme was prepared according to our previously published report. The spectrophotomeric enzyme inhibition assay approach was used for randomly screening HpFabZ inhibitor against our lab in-house natural product library. In addition, to optimize the screening efficiency and creditability, the pH profile of HpFabZ and the potential effects of DMSO on enzymatic activity were investigated [see Additional files 1, 2 and 3]. As shown in Additional file 2: Fig. S1, the pH optimum of HpFabZ was 8.0 and 1% DMSO for dissolving the tested compound had no obvious effect on the enzymatic activity (Additional file 3: Fig. S2.)

The target of test [4] is T1, HpFabZ. Briefly: SPR (Biacore 3000) binding assay of Emodin to immobilized HpFabZ. The settings on record: 25°C. As to the method: The binding of Emodin to HpFabZ was analyzed by SPR technology based Biacore 3000 instrument (Biacore AB, Uppsala, Sweden). All the experiments were carried out using HBS-EP (10 mM HEPES pH 7.4, 150 mM NaCl, 3.4 mM EDTA and 0.005% surfactant P20) as running buffer with a constant flow rate of 30 μL/min at 25°C. HpFabZ protein, which was diluted in 10 mM sodium acetate buffer (pH 4.13) to a final concentration of 1.3 μM, was covalently immobilized on the hydrophilic carboxymethylated dextran matrix of the CM5 sensor chip (BIAcore) using standard primary amine coupling procedure. Emodin was dissolved in the running buffer with different concentrations ranging from 0.625 to 20 μM. All data were analyzed by BIAevaluation software, and the sensorgrams were processed by automatic correction for nonspecific bulk refractive index effects. The kinetic analyses of the Emodin/HpFabZ binding were performed based on the 1:1 Langmuir binding fit model according to the procedures described in the software manual.
SPR technology based Biacore 3000 instrument was used to investigate the kinetic feature of Emodin binding to HpFabZ.
The 1:1 Langmuir binding model was used to fit the kinetic parameters regarding the Emodin/HpFabZ binding process, in which the association rate constant (ka) and dissociation rate constant (kd) were fitted simultaneously by rate Equation 1,(1) [drawing 1]
Where, R represents the response unit, C is the concentration of the Emodin, Rmax stands for the maximal response. The equilibrium dissociation constant (KD) was determined by Equation 2.(2) [drawing 2]

In test [5] the target is T1, HpFabZ. The test is described as follows: ITC based assay of Emodin/HpFabZ binding. The settings on record: 25°C. As to the method:
ITC experiments were performed on a VP-ITC Microcalorimeter (Microcal, Northampton, MA, USA) at 25°C. HpFabZ was dialysed extensively against 20 mM Tris (pH 8.0), 500 mM NaCl and 1 mM EDTA at 4°C. Appropriate concentration of Emodin was prepared from a 50 mM stock in DMSO, and corresponding amount of DMSO (25%) was added to the protein solution to match the buffer composition. The reference power was set to 15 μCal/sec and the cell contents were stirred continuously at 300 rpm throughout the titrations. After an initial injection of Emodin (3 μL, not used for data fitting), 29 injections (6 μL each) were performed with a 3 min-delay between each injection, and then the heat changes were monitored. Blank titrations of Emodin into buffer were also performed to correct for the heats generated by dilution and mixing. The binding isotherm was fit by the single binding site model using a non-linear least squares method based on Origin (Microcal Software, Northampton, MA, USA).
To inspect the kinetic and thermodynamic characters regarding the inhibition of Emodin against HpFabZ enzyme, ITC technology based assay was performed. […] The ITC titration data in Table 2 has clearly established a 1:1 stoichiometry for HpFabZ-Emodin complex formation. Based on the obtained thermodynamic data (ΔH = -17.77 ± 1.11 kcal/mol, TΔS = -9.12 kcal/mol, ΔG = -8.65 kcal/mol), it was easily concluded that the enthalpy contributed favorably to the binding free energy in Emodin/HpFabZ interaction, indicating a significant enthalpy driven binding of Emodin to HpFabZ.

In a further test the test system is H. pylori strains SS1. More on the design: method as in PMID 18565285. The conditions noted are these: cited from earlier work.

Each structure is given as a SMILES string. Values after ≈ are worked out from the molar mass of the structure shown.

This is an account of results in paper PMC2692856, “Emodin targets the β-hydroxyacyl-acyl carrier protein dehydratase from Helicobacter pylori: enzymatic inhibition assay with crystal structural and thermodynamic characterization” (BMC Microbiology, 2009).

T1 sequence (Q5G940 entry or part of it): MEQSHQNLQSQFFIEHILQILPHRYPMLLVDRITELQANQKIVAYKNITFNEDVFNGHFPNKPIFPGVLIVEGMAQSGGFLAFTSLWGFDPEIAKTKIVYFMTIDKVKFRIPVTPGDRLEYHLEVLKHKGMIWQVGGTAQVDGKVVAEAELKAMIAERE

With `COc1cc(O)c2c(c1)O[C@H](c1ccc(O)cc1)CC2=O` [(S)-Sakuranetin], the “MIC, H. pylori strains ATCC 43504” value in test [1] was 25 µg/mL (≈ 87.3 µM).
In the case of `O=c1cc(-c2ccc(O)cc2)oc2cc(O)cc(O)c12` [Apigenin], the “MIC, H. pylori strains ATCC 43504” value in test [1] is 25 µg/mL (≈ 92.5 µM).
With `Cc1cc(O)c2c(c1)C(=O)c1cc(O)cc(O)c1C2=O` [Emodin, 3-methyl-1,6,8-trihydroxyanthraquinone], the minimal inhibitory concentration (MIC) against H. pylori strain SS1 was determined as 5 µg/mL (≈ 18.5 µM). In test [2], this molecule had a minimum inhibitory concentration (MIC) of 10 µg/mL (≈ 37 µM). The molecule further displayed a 50% inhibitory concentration (IC50) against HpFabZ [3] (2 h preincubation with enzyme, 1% DMSO) of 9.7 ± 1 µM. The Ki on HpFabZ [3] (Lineweaver-Burk and secondary plots, substrate crotonoyl-CoA, read-out: Ki, HpFabZ enzyme inhibition) came to 1.9 ± 0.3 µM. Also, the Inhibition type entry on HpFabZ [3] (versus substrate crotonoyl-CoA, double reciprocal plots) is “Competitive”. At HpFabZ [4] (1:1 Langmuir fit), the “Rmax, maximum analyte binding capacity” value amounted to 42.3 ± 1.51 RU and the “kd, dissociation rate constant” value is reported as 0.193 ± 0.0061 per s. In addition, at HpFabZ [4] (HpFabZ immobilized on CM5 chip, read-out: KD, equilibrium dissociation constant determined by SPR), the equilibrium dissociation constant (Kd) worked out at 4.59 µM. Also, at HpFabZ [5], the TΔS is -9.12 kcal/mol, the ΔG was -8.65 kcal/mol and the ΔH is -17.77 ± 1.11 kcal/mol. Also, on HpFabZ [5] (read-out: KD', equilibrium dissociation constant determined by ITC), the Kd amounted to 0.45 µM. In addition, the “N, stoichiometry of Emodin-HpFabZ complex” value at HpFabZ [5] (single binding site model) is on record as 1.07 ± 0.035.
Take `O=C1C=CC(=O)c2c(O)cccc21` [Juglone]: the “MIC, H. pylori strains SS1” value in the test on H. pylori strains SS1 is 5 µg/mL (≈ 28.7 µM).
With `O=c1c(O)c(-c2ccc(O)c(O)c2)oc2cc(O)cc(O)c12` [Quercetin], the “MIC, H. pylori strains ATCC 43504” value in test [1] is 100 µg/mL (≈ 331 µM).
